Values after ≈ are worked out from the molar mass of the structure shown.
What was measured:
[1] = test system: clitoris; test: Patient subjective reports of sexual arousal and symptoms after application to the clitoris; format: in vivo, human
Experimental: 3. Patient Subjective Reports:
Patient reports of symptoms and effects of agents on sexual arousal measures (such as warmth and tingling, vaginal lubrication and excitation) were recorded. Blood pressure and pulse were also recorded. Different drugs were given on different days. Some series of drug titrations were recorded on several days.
(§1) 1. Solutions of prostaglandin E-1 and E-2 were prepared by dissolving weighed amounts of the prostaglandin in triacetin to produce a concentrated stock solution. Serial dilutions of this stock solution were made by a micropipette. Since triacetin can partially hydrolyze on standing to produce traces of acetic acid, the triacetin was treated with a small amount of a concentration potassium bicarbonate solution to remove any acetic acid, then dried with magnesium sulfate and filtered to give a triacetin free of acid or water. Solutions were used the same day that they were made. Concentrations of prostaglandin varied from 2.0-1,000 micrograms per milliliter of triacetin. Following equilibration of clitoral temperature, a dose of triacetin was applied to the clitoris prior to active drug solutions to determine the effect of the carrier on the clitoris.
(§2) 2. R-alphamethylhistamine hydrochloride is not soluble in triacetin but is soluble in saline. Normal saline +2 millimolar potassium phosphate at pH 7.4 was used to prepare solutions of R-alphamethylhistamine hydrochloride with concentrations from 2.5-100 micrograms per milliliter of saline.
(§3) Solutions were applied directly to the clitoris by means of a calibrated micropipette (Justor 1100DG, Sigma; St. Louis, Mo.).

[2] = test system: clitoris; test: Measurement of clitoral skin temperature after topical application to the clitoris; format: in vivo, human
Excerpt: 2. Measurement of clitoral skin temperature:
A highly sensitive thermocouple capable of determining changes in skin temperature of 0.002 degrees Fahrenheit was connected to a computer-based recording device (F1000 by Focused Technology, Inc.) and used to measure changes in clitoral skin temperature. The patient changed from their clothes into a gown and was placed in a semi-reclining position in a comfortable recliner. Room temperature was controlled at 76 degrees F. (±1) and no air drafts were present. The thermocouple was coated with a small amount of lubricating jelly and placed in a labial skin fold adjacent to the clitoris. A period of equilibration (˜15 minutes) allowed the measured temperature to stabilize. Next, precise doses of various pharmaceuticals were applied as solutions directly to the clitoris by a calibrated micropipette (Justor 1100DG, Sigma; St. Louis, Mo.). Typical volumes used were 20-50 microliters. Clitoral temperatures were continually measured and printed for analysis. Increases in skin temperature directly correlate with changes in cutaneous blood flow. See Birnbaum (U.S. Pat. No. 4,311,707) for an example of using this method to compare the relative vasodilatory potency of topical prostaglandins. Changes in skin temperature are reported as maximum recorded temperature in an interval minus the temperature at the end of the equilibration period. The magnitudes of these recorded temperature changes may be used as a measurement of the change in clitoral blood flow.
as §1, §2, §3

[3] = test system: clitoral artery; test: Measurement of clitoral blood flow by ultrasound (Doppler velocitometer); format: in vivo, human; conditions: Patient No. 1; for Change in Clitoral Blood Flow: peak systolic flow vs baseline; for Change in Clitoral Blood Flow, percent in brackets: vs baseline
Excerpt: 1. Measurement of clitoral blood flow by ultrasound:
Clitoral blood flow was estimated by utilizing the Knoll-Midas ultrasonic Doppler velocitometer (Urometrics, Inc.). The ultrasound probe was manually positioned over the middle of the clitoral body as it courses superficially through the perineum between the external vaginal opening and the end of the clitoris (glans clitoris). […] This method is analogous to that used in measuring the cavernosal artery velocity in the penis. The clitoral artery was easily visualized. Measurements were made at baseline and at various time intervals following the application of a drug to the clitoris. Peak systolic blood flow at baseline was compared to peak systolic blood flow following drug administration as a method of comparing relative efficacy in inducing clitoral artery vasodilatation in a manner analogous to studies of such drugs in men.
as §1, §3

[4] = Chemical stability of prostaglandin preparations; format: physicochemical; conditions: composition containing a citrate salt or tocopherol
[5] = test system: clitoris; test: Subjective examples: composition applied directly to the clitoris of female subjects; format: in vivo, human
Excerpt: The clitoris is often retracted or hidden under the clitoral hood. Thus, prior to administration of the present composition, the clitoral hood should be retracted with the finger of one hand, and the clitoral hood should be held back as the dose is applied. IV. Subjective Examples

[6] = Solubility in water; format: physicochemical
Experimental: 5 mg of PGE-2 is added to sterile cold water (10 ml, 1 mM in sodium citrate), stirred until dissolved and the pH adjusted with either NaOH or HCl, to a pH of about 5.4.

[7] = Patient No. 1, 1.0 mcg in saline on clitoris
[8] = Patient No. 1, 10.0 mcg in saline on clitoris
[9] = Patient No. 1, 100.0 mcg in saline on clitoris
[10] = Patient No. 1, 0.020 mcg in triacetin on clitoris
[11] = Patient No. 1, 0.200 mcg in triacetin on clitoris
[12] = Patient No. 1, 0.400 mcg in triacetin on clitoris
[13] = Patient No. 1, 1.000 mcg in triacetin on clitoris
[14] = Patient No. 1, 10.0 mcg in triacetin on clitoris
[15] = Patient No. 1, 50.0 mcg in triacetin on clitoris
[16] = Patient No. 2, 1.000 mcg in triacetin on clitoris
[17] = Example 2, 50 μg with 150 μg phentolamine hydrochloride
[18] = Example 6, 300 μg liposomal mixture after 50 mg naltrexone HCl 2 hours before, person, anorgasmia secondary to paroxetine
[19] = Patient No. 2, 10.0 mcg in triacetin on clitoris
[20] = Patient No. 1, 20.0 mcg in triacetin on clitoris
[21] = Patient No. 1, 200.0 mcg in triacetin on clitoris
[22] = Patient No. 2, 100.0 mcg in triacetin on clitoris

Question: Which results are given for `C[C@@H](N)Cc1c[nH]cn1.Cl` [R-alphamethylhistamine, R-alphamethylhistamine hydrochloride]?
Answer: Subjective Response [1, 7]: None.; Subjective Response [1, 8]: Numb feeling in clitoris.; Subjective Response [1, 9]: Clitoral burning; 2/10;; Overall effect on temperature and sexual excitement ([2]; Patient No. 1): decreased temperature and decreased sexual excitement; Temperature Change [2, 7]: −0.1 ° F.; Temperature Change [2, 8]: −0.5 ° F.; Temperature Change [2, 9]: 0.1 ° F.

Question: What does the source list for `CCCCC[C@H](O)/C=C/[C@H]1[C@H](O)CC(=O)[C@@H]1C/C=C\CCCC(=O)O` [PGE-2, 7-[3-hydroxy-2-(3-hydroxy-1-octenyl)-5-oxocyclopentyl]-5-heptenoic acid]?
Answer: Change in Clitoral Blood Flow ([3]; 0.020 mcg in triacetin): 0 cm/s; Change in Clitoral Blood Flow ([3]; 0.200 mcg in triacetin): 11 cm/s; Change in Clitoral Blood Flow, percent in brackets ([3]; 0.200 mcg in triacetin): +50%; Change in Clitoral Blood Flow ([3]; 0.400 mcg in triacetin): 12 cm/s; Change in Clitoral Blood Flow, percent in brackets ([3]; 0.400 mcg in triacetin): +92%; Change in Clitoral Blood Flow ([3]; 1.000 mcg in triacetin): 10 cm/s; Change in Clitoral Blood Flow, percent in brackets ([3]; 1.000 mcg in triacetin): +77%; Change in Clitoral Blood Flow ([3]; 10.0 mcg in triacetin): 10 cm/s; Change in Clitoral Blood Flow, percent in brackets ([3]; 10.0 mcg in triacetin): +100%; Change in Clitoral Blood Flow ([3]; 50.0 mcg in triacetin): 2 cm/s; Change in Clitoral Blood Flow, percent in brackets ([3]; 50.0 mcg in triacetin): +20%; Dose resulting in an increase in clitoral blood flow ([3]; triacetin solution with palmitic acid (PGDH inhibitor) and PGE2 in 10:1 weight ratio): 0.4 nanograms; Best dose ([1]; Patient No. 1): 0.400 µg; Doses with adverse effects ([1]; Patient No. 1): 50 µg; Subjective Response [1, 10]: Rare tingle.; Subjective Response [1, 11]: Very excited.; Subjective Response [1, 12]: Very excited, 9/10.; Subjective Response [1, 13]: Excited, 7/10.; Subjective Response [1, 14]: Very excited.; Subjective Response [1, 15]: Excited. 2/10 abdominal; Dose with subjective reports of a sexual response ([1]; Patient No. 1, triacetin solution with palmitic acid (PGDH inhibitor) and PGE2 in 10:1 weight ratio): 2 nanograms; Amount giving a sexual response ([1]; Patient No. 2): ≥ 0.050 µg; Subjective Response [1, 16]: Excited.; Stability in composition [4]: especially stabile; Sexual response after application ([5]; Example 1A, 20 μg with 150 μg phentolamine hydrochloride and 3 mg papaverine hydrochloride in liposomal solution, person, no sexual dysfunction): the clitoris became engorged and vaginal lubrication was noted; Sexual response after application ([5]; Example 1B, 125 μg with 125 μg phentolamine, aqueous solution, 2 drops, same person): essentially the same response as in part A; Sexual response after application ([5]; Example 1C, 125 μg alone in aqueous saline, 3 drops, same person): the same response described in part A but with reduced intensity; Duration of clitoral enlargement and sexual excitement [5, 17]: gone within one hour after application of the composition; Time at which stimulation peaked after application [5, 17]: around 15 minutes; Sexual response after application ([5]; Example 2, 50 μg with 150 μg phentolamine hydrochloride, aqueous solution, person, no sexual dysfunction): warm tingling sexual feelings in their clitoris within one minute; Response to repeat dosing ([5]; Example 2, repeat dose one and a half hours after the first dose): gave the same response as the first dose; Intensity of response rated by subject ([5]; Example 2, scale of one (1) to ten (10), ten highest, 50 μg with 150 μg phentolamine hydrochloride): 8; Sexual response after application ([5]; Example 5, 150 μg in liposomal solution, three drops, person with decreased sexual responsiveness): greatly increased their sexual desire and responsiveness; Sexual response after application [5, 18]: had the best sexual experience of their life; Time to tingling sexual feelings spreading over body [5, 18]: ≤ 1 min; Temperature Change [2, 10]: 2.1 ° F.; Potency relative to PGE-1 (clitoral temperature increase) ([2]; Patient No. 1, 0.200 mcg PGE-2 about equal to 100 mcg PGE-1): about 500 times; Temperature Change [2, 11]: 2.4 ° F.; Temperature Change [2, 12]: 4.5 ° F.; Temperature Change [2, 13]: 2.3 ° F.; Temperature Change [2, 14]: 4.8 ° F.; Temperature Change [2, 15]: 2.0 ° F.; Temperature Change ([2]; Patient No. 2, 0.050 mcg in triacetin on clitoris): 1.8 ° F.; Temperature Change [2, 16]: 2.4 ° F.; Temperature Change [2, 19]: 2.0 ° F.; Clitoral temperature effect (conclusion) ([2]; both patients): increases in clitoral temperatures

Question: Which results are given for `CCCCC[C@H](O)/C=C/[C@H]1[C@H](O)CC(=O)[C@@H]1CCCCCCC(=O)O` [PGE-1, 3-hydroxy-2-(3-hydroxy-1-octenyl)-5-oxocyclopentaneheptanoic acid]?
Answer: Change in Clitoral Blood Flow ([3]; 20.0 mcg in triacetin): 4 cm/s; Change in Clitoral Blood Flow, percent in brackets ([3]; 20.0 mcg in triacetin): +46%; Change in Clitoral Blood Flow ([3]; 50.0 mcg in triacetin): 3.5 cm/s; Change in Clitoral Blood Flow, percent in brackets ([3]; 50.0 mcg in triacetin): +32%; Change in Clitoral Blood Flow ([3]; 100.0 mcg in triacetin): 6.5 cm/s; Change in Clitoral Blood Flow, percent in brackets ([3]; 100.0 mcg in triacetin): +33%; Change in Clitoral Blood Flow ([3]; 200.0 mcg in triacetin): 11 cm/s; Change in Clitoral Blood Flow, percent in brackets ([3]; 200.0 mcg in triacetin): +80%; Doses giving pleasurable feelings ([1]; Patient No. 1): ≥ 20 µg; Doses with adverse effects ([1]; Patient No. 1): adverse effects at all doses; Subjective Response [1, 12]: Felt cold.; Subjective Response [1, 13]: Clitoral burning; 6/10;; Subjective Response [1, 20]: Clitoral burning; 4/10.; Subjective Response [1, 15]: Exciting. Jaw pain.; Subjective Response [1, 21]: Diffuse pain, flushing,; Overall effects ([1]; Patient No. 2): neither positive nor negative effects; Subjective Response [1, 16]: Felt drop go on. No; Subjective Response [1, 19]: Felt drop go on. No; Subjective Response [1, 22]: Felt nothing.; solubility [6]: 80 µg/mL (≈ 226 µM); Temperature Change [2, 12]: −0.6 ° F.; Temperature Change [2, 13]: 0.3 ° F.; Temperature Change [2, 20]: 0.3 ° F.; Temperature Change [2, 15]: 0.1 ° F.; Temperature Change ([2]; Patient No. 1, 100.0 mcg in triacetin on clitoris): 2.7 ° F.; Temperature Change [2, 21]: 0.4 ° F.; Clitoral temperature effect (conclusion) ([2]; Patient No. 2): did not have a temperature increase; Temperature Change [2, 16]: −0.35 ° F.; Temperature Change [2, 19]: −0.10 ° F.; Temperature Change [2, 22]: −0.10 ° F.

From patent US6593369B2, “Methods, compositions, and kits for enhancing female sexual desire and responsiveness” (Vivus, Inc., priority 1997, dated 2003)
